Structures are written as SMILES.

Eight molecules from patent US8431402B2, “Method of high frequency regeneration of Sorghum” (Temasek Life Sciences Laboratory Limited, priority 2008, dated 2013) can be followed below.

In the assay the test system is dissected embryonated cotyledon (DEC) explants of sweet sorghum hybrid varieties Liotian 1, Lioza 7050A and Liao Ji Za 1. The experiment in a line: Regeneration of sorghum via organogenesis from dissected embryonated cotyledon (DEC) explants on stage 1-6 media. Type of assay: cell-based, Sorghum bicolor (L.) Moench. To be noted: for phenolic exudates from the base of the shoot buds: added to stage 2 medium. Here is the method: Seeds of sweet sorghum (Sorghum bicolor (L.) Moench) hybrid varieties Liotian 1, Lioza 7050A and Liao Ji Za 1 were obtained from Chinese National Center for Sorghum Improvement, Shenyang City, 110161, Liaoning Province, P.R. China. The viable seeds were washed in chlorohexidine surgical wash (two drops in 100 ml of sterile water) for five minutes and soaked in sterile water for two days at 4° C. in refrigerator. Later these imbibed seeds were further surface sterilized in 10% clorox solution (commercial bleach) for 10 minutes followed by washes with sterile water for five times. To ensure complete sterility, these seeds were rinsed again with 70% alcohol for 90 seconds and subsequently washed with sterile water three times before used as explants.
The radical tissues were completely removed from the dissected embryonated cotyledon (DEC) explants. After six weeks of culture, the SCPC from stage 1 medium were further injured and transferred to stage 2 medium (Table 1) and stage 3 medium (Table 1) at five and ten-day interval for shoot bud induction. Subsequently, the shoot buds developed on stage 3 medium were split into 8-10 clumps with each clumps containing three to five shoots and transferred to stage 4 medium (Table 1) for further shoot induction followed by stage 5 medium (Table 1) for shoot elongation at two-week intervals respectively. The elongated shoot clumps with 2-3 shoots (4 cm height) from stage 5 medium were transferred to stage 6 medium (Table 1) for root induction. The well developed and rooted plantlets were transferred for hardening after two weeks of culture.
The pH of the medium was adjusted to 5.8 with 1N NaOH or 1N HCl prior to the addition of 0.8% phytoagar (stages 1-5 media) or 0.25% phytogel (stage 6 medium) and sterilized by autoclaving at 121° C. for 20 minutes. Approximately 20 ml of sterilized medium was dispensed into sterilized Petri dish (90×15 mm size, plastic polycarbonate, Canada). The chemicals used for media preparations were of analytical grade (Duchefa Biochemie, Haarlem, The Netherlands and Sigma Aldrich, Inc., St Louis, USA). All the cultures were maintained at 25° C. 2° C. under white fluorescent tube lights, 16/8 h (light/dark) photoperiod period, light intensity of 25 μE m^−2s^−1 and with 55-60% relative humidity. The cultures were subcultured at two-week intervals during stage 1, five-day intervals in stages 2 and 3, followed by one-week intervals in stages 4 and 5, with no subculturing in stage 6.

For the molecule `O=C(O)COc1ccc(Cl)cc1Cl` [2,4-D, 2,4-dichlorophenoxy acetic acid], the callus formation (present in stage 1 medium, 6.78 μM) is on record as “induced callus formation”. In the case of `CC1=CC(=O)CC(C)(C)[C@@]1(O)/C=C/C(C)=C\C(=O)O` [ABA, abscisic acid], where the note is “present in stage 1 medium”, the “germination of embryos attached to the cotyledons” value (“germination of embryos attached” below) was “inhibited germination of embryos”. For the molecule `O=[N+]([O-])[O-].[Ag+]` [AgNO3], the “phenolic exudates from the base of the shoot buds” value (shortened to “phenolic exudates from the base”) is reported as “prevented these phenolic exudates”. Take `O=C1O[C@H]([C@@H](O)CO)C(O)=C1O` [Asc, ascorbic acid]: the “phenolic exudates from the base” value is given as “prevented these phenolic exudates”. Take `O=C(O)Cc1c[nH]c2ccccc12` [IAA, indole 3-acetic acid]: under “in stage 6 medium, 5.7 μM”, the root induction result is “induced roots within one week”. With `NC(=O)CC[C@H](N)C(=O)O` [L-glutamine], the “germination of embryos attached” value (present in stage 1 medium) is recorded as “inhibited germination of embryos”. For the molecule `NCC(=O)O` [L-glycine], the “phenolic exudates from the base” value was “prevented these phenolic exudates”.

Take `O=C(O)[C@@H]1CCCN1` [proline, L-proline]: the “germination of embryos attached” value (present in stage 1 medium) is given as “inhibited germination of embryos”.
